From patent US12371454B2, “Cyclic peptide compound having Kras inhibitory action” (priority 2019, dated 2025)
Starred links: 1 amine or outer side, 2 acyl side, 3 side chain; linkers in the order of their positions; H or OH if unused. Positions of bridges follow the written chain, without caps; N, C: chain ends. Non-standard residues stand in square brackets, D forms with d. Residues, ends and D or L forms follow the SMILES beside them. *: point of attachment. hPhe(3-Cl-4-CF3) = N[C@@H](CCc1ccc(C(F)(F)F)c(Cl)c1)C(=O)O; NMePhe(4-CF3) = CN[C@@H](Cc1ccc(C(F)(F)F)cc1)C(=O)O; hPhe(4-CF3) = N[C@@H](CCc1ccc(C(F)(F)F)cc1)C(=O)O; NMePhe(4-Cl) = CN[C@@H](Cc1ccc(Cl)cc1)C(=O)O; X35 = CN([C@@](C)(Cc1ccccc1)C(=O)[*:2])[*:1]; NMedβ3hAla = C[C@H](CC(=O)[*:2])N(C)[*:1]; Oic = O=C(O)[C@@H]1C[C@@H]2CCCC[C@@H]2N1; Phe(3-I) = N[C@@H](Cc1cccc(I)c1)C(=O)O; Phe(4-F) = N[C@@H](Cc1ccc(F)cc1)C(=O)O; NMehPhe = CN[C@@H](CCc1ccccc1)C(=O)O; NMeY = CN[C@@H](Cc1ccc(O)cc1)C(=O)O; NMeCha = CN[C@@H](CC1CCCCC1)C(=O)O; NMeChg = CN[C@H](C(=O)O)C1CCCCC1; NMeI = CC[C@H](C)[C@H](NC)C(=O)O; NMeD = CN[C@@H](CC(=O)O)C(=O)O; NMeL = CN[C@@H](CC(C)C)C(=O)O; dNMeAbu = CC[C@@H](NC)C(=O)O; hLeu = CC(C)CC[C@H](N)C(=O)O; NMeV = CN[C@H](C(=O)O)C(C)C; d(β3hA) = C[C@@H](N)CC(=O)O; NMeA = CN[C@@H](C)C(=O)O; NMeAib = CNC(C)(C)C(=O)O; Nle = CCCC[C@H](N)C(=O)O; Piperidide = C1CCN(*)CC1; dNMeA = CN[C@H](C)C(=O)O; Ac5c = NC1(C(=O)O)CCCC1; Aze = O=C(O)[C@@H]1CCN1; Aib = CC(C)(N)C(=O)O; Sar = CNCC(=O)O; Propyl = CCC*

Target: T1, Kras and SOS1 (biotin-tagged human Kras loaded with GDP, His-tagged human SOS1) (Homo sapiens, UniProt P01116, G12D)
T1 construct: made in house; host or cells: E. coli (stated for Kras only)
Experiment: Protein-protein interaction inhibition between Kras and SOS1 (KrasGl2D-SOS PPI) using AlphaScreen
Type: binding
Conditions: AlphaScreen; biotin-tagged human Kras loaded with GDP, His-tagged human SOS1; read-out: KRAS G12D-SOS PPI IC50
In short: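 Donor beads (nickel) hold His-SOS1; acceptor beads (streptavidin) hold biotin-Kras bound to GDP. Signal measured at 520-620 nm following 680 nm excitation.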

T1 sequence (P01116 1-188 isoform P01116-2 G12D): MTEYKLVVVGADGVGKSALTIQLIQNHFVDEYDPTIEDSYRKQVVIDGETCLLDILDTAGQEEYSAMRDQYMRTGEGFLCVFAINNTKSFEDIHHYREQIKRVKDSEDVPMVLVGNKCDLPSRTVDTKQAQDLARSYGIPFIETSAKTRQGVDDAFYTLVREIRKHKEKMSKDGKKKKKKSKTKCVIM

Compared with CC[C@H](C)[C@@H]1NC(=O)[C@H](C)N(C)C(=O)C[C@@H](C)NC(=O)[C@H](CC(C)C)N(C)C(=O)C(C)(C)NC(=O)[C@@H]2C[C@@H]3CCCC[C@@H]3N2C(=O)[C@H](CCc2ccc(C(F)(F)F)cc2)NC(=O)CN(C)C(=O)[C@H](Cc2ccc(Cl)cc2)N(C)C(=O)CN(C)C(=O)CN(C)C1=O [Compound 521] (cyclo([Aib][NMeL][d(β3hA)][NMeA]I[Sar][Sar][NMePhe(4-Cl)][Sar][hPhe(4-CF3)][Oic])), CC[C@H](C)[C@@H]1NC(=O)[C@H](CC(C)C)N(C)C(=O)C[C@@H](C)NC(=O)[C@H](C(C)C)N(C)C(=O)C2(CCCC2)NC(=O)[C@@H]2CCCN2C(=O)[C@H](CCc2ccc(C(F)(F)F)c(Cl)c2)NC(=O)CN(C)C(=O)[C@H](CCc2ccccc2)N(C)C(=O)CN(C)C(=O)CN(C)C1=O [Compound 1627] (cyclo([Ac5c][NMeV][d(β3hA)][NMeL]I[Sar][Sar][NMehPhe][Sar][hPhe(3-Cl-4-CF3)]P)) is 4.7-fold lower in IC50: 71 nM for the first, 15 nM for the second. The second is the more potent here.

Compared with CC[C@H](C)[C@@H]1NC(=O)[C@H](CC(C)C)N(C)C(=O)C[C@@H](C(=O)N2CCCCC2)N(C)C(=O)[C@H]([C@@H](C)CC)N(C)C(=O)C2(CCCC2)NC(=O)[C@@H]2CCCN2C(=O)[C@H](CCc2ccc(C(F)(F)F)c(Cl)c2)NC(=O)CN(C)C(=O)[C@H](Cc2ccc(C(F)(F)F)cc2)N(C)C(=O)[C@@H]2CCN2C(=O)[C@H](C)N(C)C1=O [Compound 630] ([NMeL]I[NMeA][Aze][NMePhe(4-CF3)][Sar][hPhe(3-Cl-4-CF3)]P[Ac5c][NMeI][NMeD]-Piperidide; lactam N-11), CC[C@@H]1C(=O)NC2(CCCC2)C(=O)N(C)[C@@H](C(C)C)C(=O)N(C)[C@H](C(=O)N2CCCCC2)CC(=O)N(C)[C@@H](CC(C)C)C(=O)N[C@@H]([C@@H](C)CC)C(=O)N(C)[C@@H](C)C(=O)N2CC[C@H]2C(=O)N(C)[C@@H](CC2CCCCC2)C(=O)N(C)CC(=O)N[C@@H](CCc2ccc(C(F)(F)F)c(Cl)c2)C(=O)N1C [Compound 1438] ([NMeL]I[NMeA][Aze][NMeCha][Sar][hPhe(3-Cl-4-CF3)][dNMeAbu][Ac5c][NMeV][NMeD]-Piperidide; lactam N-11) is 21-fold higher in IC50: 1.7 nM for the first, 36 nM for the second. The first is the more potent here.

Compared with CCCC[C@@H]1NC(=O)[C@H](Cc2cccc(I)c2)NC(=O)CN(C)C(=O)[C@H](Cc2ccc(OC)cc2)N(C)C(=O)[C@@H]2CCN2C(=O)CN(C)C(=O)[C@H]([C@@H](C)CC)NC(=O)[C@H](CC(C)C)N(C)C(=O)C[C@@H](C(=O)N2CCCCC2)N(C)C(=O)[C@H](CC(C)C)NC(=O)[C@](C)(Cc2ccccc2)N(C)C1=O [Compound 1058] ([NMeL]I[Sar][Aze][NMeY](Me)[Sar][Phe(3-I)][Nle][X35]L[NMeD]-Piperidide; lactam N-11), CCCC[C@@H]1NC(=O)[C@H](Cc2cccc(I)c2)NC(=O)CN(C)C(=O)[C@H](Cc2ccc(C(F)(F)F)cc2)N(C)C(=O)CN(C)C(=O)CN(C)C(=O)[C@H]([C@@H](C)CC)NC(=O)[C@H](CC(C)C)N(C)C(=O)C[C@@H](C(=O)N2CCCCC2)N(C)C(=O)[C@H](CCC(C)C)NC(=O)C(C)(C)N(C)C1=O [Compound 1433] ([NMeL]I[Sar][Sar][NMePhe(4-CF3)][Sar][Phe(3-I)][Nle][NMeAib][hLeu][NMeD]-Piperidide; lactam N-11) is 2.1-fold higher in IC50: 14 nM for the first, 29 nM for the second.

First: CCCOC[C@@H]1NC(=O)[C@H](CC(C)C)N(C)C(=O)C[C@@H](C(=O)N2CCCCC2)N(C)C(=O)[C@H](C2CCCCC2)N(C)C(=O)C2(CCCC2)NC(=O)[C@@H]2CCCN2C(=O)[C@H](CCc2ccc(C(F)(F)F)c(Cl)c2)NC(=O)CN(C)C(=O)[C@H](CC2CCCCC2)N(C)C(=O)CN(C)C(=O)CN(C)C1=O [Compound 1736] ([NMeL]S(Propyl)[Sar][Sar][NMeCha][Sar][hPhe(3-Cl-4-CF3)]P[Ac5c][NMeChg][NMeD]-Piperidide; lactam N-11)
Second: CC[C@H](C)[C@@H]1NC(=O)[C@H](C)N(C)C(=O)C[C@@H](C)N(C)C(=O)[C@H](CC(C)C)NC(=O)C(C)(C)N(C)C(=O)[C@H](CC(C)C)NC(=O)[C@H](CCc2ccc(C(F)(F)F)c(Cl)c2)NC(=O)[C@@H](C)N(C)C(=O)[C@H](CC2CCCCC2)N(C)C(=O)[C@@H]2CCN2C(=O)CN(C)C1=O [Compound 1378] (cyclo([Aze][NMeCha][dNMeA][hPhe(3-Cl-4-CF3)]L[NMeAib]L[NMedβ3hAla][NMeA]I[Sar]))
The IC50 of the first is 88-fold lower: 4.3 nM for the first, 380 nM for the second.

Work on CCCC[C@@H]1NC(=O)[C@H](Cc2ccc(F)cc2)NC(=O)CN(C)C(=O)[C@H](Cc2ccc(Cl)cc2)N(C)C(=O)CN(C)C(=O)CN(C)C(=O)[C@H]([C@@H](C)CC)NC(=O)[C@H](CC(C)C)N(C)C(=O)C[C@@H](C(=O)N2CCCCC2)N(C)C(=O)[C@H](CC(C)C)NC(=O)C(C)(C)N(C)C1=O [Compound 1305] ([NMeL]I[Sar][Sar][NMePhe(4-Cl)][Sar][Phe(4-F)][Nle][NMeAib]L[NMeD]-Piperidide; lactam N-11) yielded an IC50 of 240 nM.
